Measurements published in paper PMC12445744, “Molecular docking to homology models of human and Trypanosoma brucei ERK8 that identified ortholog-specific inhibitors” (PLOS Neglected Tropical Diseases, 2025).
“And” between values parts separate entries of the source, which are not always exact repeats. Equal entries are not always repeated.

Target: T1, TbERK8 (Trypanosoma brucei brucei, UniProt Q38B88)
T1 sequence (Q38B88 1-442): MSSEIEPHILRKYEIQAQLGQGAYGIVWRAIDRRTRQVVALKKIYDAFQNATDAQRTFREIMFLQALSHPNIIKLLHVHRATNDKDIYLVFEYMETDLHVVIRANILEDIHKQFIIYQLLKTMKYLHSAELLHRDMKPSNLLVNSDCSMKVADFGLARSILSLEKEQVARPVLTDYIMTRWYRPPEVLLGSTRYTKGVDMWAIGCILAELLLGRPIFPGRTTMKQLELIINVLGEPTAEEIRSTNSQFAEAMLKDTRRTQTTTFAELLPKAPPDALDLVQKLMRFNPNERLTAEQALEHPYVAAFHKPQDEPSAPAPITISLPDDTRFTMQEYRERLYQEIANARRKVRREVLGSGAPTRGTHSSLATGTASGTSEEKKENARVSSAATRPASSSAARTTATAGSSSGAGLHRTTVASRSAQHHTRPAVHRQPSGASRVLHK
Test: Luciferase-based kinase inhibition assay (ATP luminescence), GST-tagged TbERK8 with MBP substrate
Type: biochemical
Parameters: raw luminescence, TbERK8: unit of the concentration uncertain
Conditions: for raw luminescence, TbERK8: replicate wells; for raw luminescence, TbERK8 / Luminescence Raw (Kinase-Glo): listed as Sil; for Luminescence Raw (Kinase-Glo): TbERK8

CCCc1nn(C)c2c(=O)[nH]c(-c3cc(S(=O)(=O)N4CCN(C)CC4)ccc3OCC)nc12 [Sildenafil]
IC50: 9 mM
raw luminescence, TbERK8 (0.00015 (unit uncertain) compound, sheet ADP_ATP_glo081724 (3)): 192.26 RLU and 196.784 RLU and 144.761 RLU
raw luminescence, TbERK8 (0.00015 (unit uncertain) compound, sheet Kinase_glo 08142024 (2)): 642.503 RLU and 676.319 RLU and 570.644 RLU
raw luminescence, TbERK8 (0.00015 (unit uncertain) compound, sheet Kinase_glo_080924_IFPS (2)): 1471.05 RLU and 1414.9 RLU and 1313.84 RLU
raw luminescence, TbERK8 (0.00061 (unit uncertain) compound, sheet ADP_ATP_glo081724 (3)): 122.142 RLU and 174.165 RLU and 104.047 RLU
raw luminescence, TbERK8 (0.00061 (unit uncertain) compound, sheet Kinase_glo 08142024 (2)): 718.589 RLU and 748.177 RLU and 712.248 RLU
raw luminescence, TbERK8 (0.00061 (unit uncertain) compound, sheet Kinase_glo_080924_IFPS (2)): 788.303 RLU and 923.056 RLU and 783.811 RLU
raw luminescence, TbERK8 (0.00244 (unit uncertain) compound, sheet ADP_ATP_glo081724 (3)): 246.545 RLU and 205.831 RLU and 226.188 RLU
raw luminescence, TbERK8 (0.00244 (unit uncertain) compound, sheet Kinase_glo 08142024 (2)): 701.681 RLU and 748.177 RLU and 629.822 RLU
raw luminescence, TbERK8 (0.00244 (unit uncertain) compound, sheet Kinase_glo_080924_IFPS (2)): 458.159 RLU and 390.783 RLU and 375.062 RLU
raw luminescence, TbERK8 (0.00977 (unit uncertain) compound, sheet ADP_ATP_glo081724 (3)): 235.236 RLU and 187.736 RLU and 135.713 RLU
raw luminescence, TbERK8 (0.00977 (unit uncertain) compound, sheet Kinase_glo 08142024 (2)): 820.036 RLU and 841.171 RLU and 775.653 RLU
raw luminescence, TbERK8 (0.00977 (unit uncertain) compound, sheet Kinase_glo_080924_IFPS (2)): 660.288 RLU and 590.666 RLU and 547.994 RLU
raw luminescence, TbERK8 (0.03906 (unit uncertain) compound, sheet ADP_ATP_glo081724 (3)): 210.355 RLU and 205.831 RLU and 187.736 RLU
raw luminescence, TbERK8 (0.03906 (unit uncertain) compound, sheet Kinase_glo 08142024 (2)): 526.26 RLU and 661.524 RLU and 672.092 RLU
raw luminescence, TbERK8 (0.03906 (unit uncertain) compound, sheet Kinase_glo_080924_IFPS (2)): 981.449 RLU and 954.498 RLU and 819.745 RLU
raw luminescence, TbERK8 (0.15625 (unit uncertain) compound, sheet ADP_ATP_glo081724 (3)): 341.544 RLU and 352.854 RLU and 287.259 RLU
raw luminescence, TbERK8 (0.15625 (unit uncertain) compound, sheet Kinase_glo 08142024 (2)): 849.625 RLU and 830.604 RLU and 743.951 RLU
raw luminescence, TbERK8 (0.15625 (unit uncertain) compound, sheet Kinase_glo_080924_IFPS (2)): 1302.61 RLU and 956.744 RLU and 1116.2 RLU
raw luminescence, TbERK8 (0.62500 (unit uncertain) compound, sheet ADP_ATP_glo081724 (3)): 653.684 RLU and 678.565 RLU and 508.924 RLU
raw luminescence, TbERK8 (0.62500 (unit uncertain) compound, sheet Kinase_glo 08142024 (2)): 1502.69 RLU and 1635.85 RLU and 1447.74 RLU
raw luminescence, TbERK8 (0.62500 (unit uncertain) compound, sheet Kinase_glo_080924_IFPS (2)): 10771.2 RLU and 11665.1 RLU and 9012.71 RLU
raw luminescence, TbERK8 (2.50000 (unit uncertain) compound, sheet ADP_ATP_glo081724 (3)): 9775.86 RLU and 9642.41 RLU and 4501.15 RLU
raw luminescence, TbERK8 (2.50000 (unit uncertain) compound, sheet Kinase_glo 08142024 (2)): 30745 RLU and 32114.6 RLU and 32366.1 RLU
raw luminescence, TbERK8 (2.50000 (unit uncertain) compound, sheet Kinase_glo_080924_IFPS (2)): 19880.5 RLU and 19849.1 RLU and 15795.3 RLU
raw luminescence, TbERK8 (10.00000 (unit uncertain) compound, sheet ADP_ATP_glo081724 (3)): 17380.3 RLU and 17721.9 RLU and 17968.4 RLU
raw luminescence, TbERK8 (10.00000 (unit uncertain) compound, sheet Kinase_glo 08142024 (2)): 40177.6 RLU (2×) and 40048.6 RLU
raw luminescence, TbERK8 (10.00000 (unit uncertain) compound, sheet Kinase_glo_080924_IFPS (2), signal = ATP left): 19548.1 RLU and 21185.4 RLU and 21443.6 RLU
Luminescence Raw (Kinase-Glo) (inhibitor 0.00976562 mM, sheet Sil_Pred3, read 3): 36049.4 and 37274.6 and 36862.3
Luminescence Raw (Kinase-Glo) (inhibitor 0.0195312 mM, sheet Sil_Pred3, read 3): 31279.7 and 32797.7 and 32247.2
Luminescence Raw (Kinase-Glo) (inhibitor 0.0390625 mM, sheet Sil_Pred3, read 3): 27320.5 and 29281.3 and 28655.8
Luminescence Raw (Kinase-Glo) (inhibitor 0.078125 mM, sheet Sil_Pred3, read 3): 38799.7 and 40144.4 and 45260.9
Luminescence Raw (Kinase-Glo) (inhibitor 0.15625 mM, sheet Sil_Pred3, read 3): 29028.3 and 32258.9 and 32301.1
Luminescence Raw (Kinase-Glo) (inhibitor 0.3125 mM, sheet Sil_Pred3, read 3): 27939 and 30286.4 and 29686.6
Luminescence Raw (Kinase-Glo) (inhibitor 0.625 mM, sheet Sil_Pred3, read 3): 36091.6 and 38406.1 and 37640.1
Luminescence Raw (Kinase-Glo) (inhibitor 0.00976562, sheet Sil_Pred1, read 1): 40167.3 and 42010.2 and 38672.9
Luminescence Raw (Kinase-Glo) (inhibitor 0.00976562, sheet Sil_Pred2, read 2): 37219 and 38747.1 and 37019
Luminescence Raw (Kinase-Glo) (inhibitor 0.0195312, sheet Sil_Pred1, read 1): 34760.2 and 36412.8 and 34705.2
Luminescence Raw (Kinase-Glo) (inhibitor 0.0195312, sheet Sil_Pred2, read 2): 32386.1 and 33904.8 and 32825.7
Luminescence Raw (Kinase-Glo) (inhibitor 0.0390625, sheet Sil_Pred1, read 1): 30029.2 and 32598.7 and 32204.5
Luminescence Raw (Kinase-Glo) (inhibitor 0.0390625, sheet Sil_Pred2, read 2): 28304.4 and 29974.3 and 30192.9
Luminescence Raw (Kinase-Glo) (inhibitor 0.078125, sheet Sil_Pred1, read 1): 43786.6 and 44925.8 and 48645.9
Luminescence Raw (Kinase-Glo) (inhibitor 0.078125, sheet Sil_Pred2, read 2): 39158.7 and 41749.6 and 45619.7
Luminescence Raw (Kinase-Glo) (inhibitor 0.15625, sheet Sil_Pred1, read 1): 32447.4 and 35952.1 and 35828.3
Luminescence Raw (Kinase-Glo) (inhibitor 0.15625, sheet Sil_Pred2, read 2): 29879 and 33446.7 and 32672.2
Luminescence Raw (Kinase-Glo) (inhibitor 0.3125, sheet Sil_Pred1, read 1): 31858.4 and 33536.2 and 32552.9
Luminescence Raw (Kinase-Glo) (inhibitor 0.3125, sheet Sil_Pred2, read 2): 29706.8 and 31355.8 and 30890.7
Luminescence Raw (Kinase-Glo) (inhibitor 0.625, sheet Sil_Pred1, read 1): 41361.5 and 43495.5 and 43241.1
Luminescence Raw (Kinase-Glo) (inhibitor 0.625, sheet Sil_Pred2, read 2): 37112 and 39789 and 39512.2
